Values after ≈ are worked out from the molar mass of the structure shown. Values joined by “and” are separate entries in the source; they are usually repeats but may differ in a detail not shown here. Identical values can stand only once. Like-named read-outs stand apart in the source and are kept apart here. Blank lines part the entries; values can stand above or below the compound they belong to.
Key:
HEK293T = test: Specificity: mammalian cell cytotoxicity / inhibition of bacteria growth (CC50/IC50)
A. baumannii HUMC1 [1] = test: IC50 dose response, inhibition of bacterial growth (BacTiter-Glo viability); type: cell-based, Acinetobacter baumannii; settings: 11-point dose response, read-out: IC50
A. baumannii ATCC 17978 = test: as above; type: cell-based, Acinetobacter baumannii; settings: 11-point dose response, read-out: IC50
K. pneumonia = test: MIC, broth microdilution; type: cell-based; settings: Klebsiella pneumoniae, read-out: MIC
A. baumannii HUMC1 [2] = type: in vivo, mouse
A. baumannii HUMC1 [3] = test: MIC, broth microdilution in MHII, RPMI or modified media; type: cell-based, Acinetobacter baumannii
A. baumannii [4] = test: MIC, broth microdilution, A. baumannii clinical isolates / strain panel; type: cell-based, Acinetobacter baumannii; settings: Acinetobacter baumannii; for MIC: read-out: MIC; for MIC50 / MIC90: A. baumannii strain panel; for MIC50: read-out: MIC50; for MIC90: read-out: MIC90
S. aureus LAC [5] = test: microbe, parasite or virus in culture; type: cell-based; settings: Staphylococcus aureus, read-out: MIC
E. coli = test: MIC, broth microdilution; type: cell-based; settings: Escherichia coli, E. coli JJ1886
S. aureus LAC [6] = type: cell-based, Staphylococcus aureus; settings: TSA
Acinetobacter baumannii = test: Galleria mellonella infection model; type: in vivo; settings: Galleria mellonella; doses as high as 5 mg/kg
E. coli JJ1886 = type: cell-based, Escherichia coli; settings: TSA
A. baumannii HUMC1 [7] = type: in vivo, mouse; remark: listed apart in the source
A. baumannii [8] = type: cell-based, Acinetobacter baumannii
[9] = IC50 vs A. baumannii ATCC 17978, RPMI + 50% serum
[10] = IC50 vs A. baumannii ATCC 17978, RPMI alone
[11] = IC50 vs A. baumannii HUMC1, RPMI + 50% serum
[12] = IC50 vs A. baumannii HUMC1, RPMI alone
[13] = Acinetobacter baumannii, HUMC1, 24 h, HUMC1, RPMI + 50% Serum
[14] = Acinetobacter baumannii, HUMC1, HUMC1, RPMI + 50% Serum
[15] = Acinetobacter baumannii, HUMC1, HUMC1, RPMI
[16] = Acinetobacter baumannii, ATCC17978, 24 h, ATCC 17978, RPMI + 50% Serum
[17] = Acinetobacter baumannii, ATCC17978, ATCC 17978, RPMI + 50% Serum
[18] = Acinetobacter baumannii, ATCC17978, ATCC 17978, RPMI

IC50 (A. baumannii HUMC1 [1]; HUMC1, RPMI + 50% Serum): 50 µM
IC50 (A. baumannii HUMC1 [1]; HUMC1, RPMI): 37.1 µM
IC50 (A. baumannii ATCC 17978; ATCC 17978, RPMI + 50% Serum): 50 µM
IC50 (A. baumannii ATCC 17978; ATCC 17978, RPMI): 45.1 µM
SMILES: CO[C@H]1/C=C/O[C@@]2(C)Oc3c(C)c([O-])c4c(O)c(cc(O)c4c3C2=O)NC(=O)/C(C)=C\C=C\[C@H](C)[C@H](O)[C@@H](C)[C@@H](O)[C@@H](C)[C@H](OC(C)=O)[C@@H]1C.[Na+] [rifamycin SV]
Specificity HEK293T (CC50/IC50) (HEK293T; [9]): 1.000
Specificity HEK293T (CC50/IC50) (HEK293T; [10]): 1.108
Specificity HEK293T (CC50/IC50) (HEK293T; [11]): 1.000
Specificity HEK293T (CC50/IC50) (HEK293T; [12]): 1.348

IC50 (A. baumannii HUMC1 [1]; [13]): 1.59 µM
IC50 (A. baumannii HUMC1 [1]; [14]): 1.59 µM
IC50 (A. baumannii HUMC1 [1]; [15]): 1.53 µM
IC50 (A. baumannii ATCC 17978; [16]): 2.45 µM
IC50 (A. baumannii ATCC 17978; [17]): 2.45 µM
IC50 (A. baumannii ATCC 17978; [18]): 1.78 µM
SMILES: CO[C@H]1/C=C/O[C@@]2(C)Oc3c(C)c(O)c4c(O)c(c5c(nc6cc(C)ccn65)c4c3C2=O)NC(=O)/C(C)=C\C=C\[C@H](C)[C@H](O)[C@@H](C)[C@@H](O)[C@@H](C)[C@H](OC(C)=O)[C@@H]1C [rifaximin]
Specificity HEK293T (CC50/IC50) (HEK293T; [9]): 20.421
Specificity HEK293T (CC50/IC50) (HEK293T; [10]): 28.143
Specificity HEK293T (CC50/IC50) (HEK293T; [11]): 31.517
Specificity HEK293T (CC50/IC50) (HEK293T; [12]): 32.776

SMILES: CO[C@H]1/C=C/O[C@@]2(C)Oc3c(C)c(O)c4c(O)c(c(/C=N/N=C/N5CCCCC5)c(O)c4c3C2=O)NC(=O)/C(C)=C\C=C\[C@H](C)[C@H](O)[C@@H](C)[C@@H](O)[C@@H](C)[C@H](OC(C)=O)[C@@H]1C [FCE-22250]
Specificity HEK293T (CC50/IC50) (HEK293T; [9]): 0.950
Specificity HEK293T (CC50/IC50) (HEK293T; [10]): 3.441
Specificity HEK293T (CC50/IC50) (HEK293T; [11]): 1.545
Specificity HEK293T (CC50/IC50) (HEK293T; [12]): 3.710
IC50 (A. baumannii HUMC1 [1]; HUMC1, RPMI + 50% Serum): 21.7 µM
IC50 (A. baumannii HUMC1 [1]; HUMC1, RPMI): 9.03 µM
IC50 (A. baumannii ATCC 17978; ATCC 17978, RPMI + 50% Serum): 35.3 µM
IC50 (A. baumannii ATCC 17978; ATCC 17978, RPMI): 9.74 µM

SMILES: CO[C@H]1/C=C/O[C@@]2(C)Oc3c(C)c(O)c4c(O)c(c(/C=N/N5CCN(C)CC5)c(O)c4c3C2=O)NC(=O)/C(C)=C\C=C\[C@H](C)[C@H](O)[C@@H](C)[C@@H](O)[C@@H](C)[C@H](OC(C)=O)[C@@H]1C [rifampin]
Specificity HEK293T (CC50/IC50) (HEK293T; [9]): 2.741
Specificity HEK293T (CC50/IC50) (HEK293T; [10]): 3.621
Specificity HEK293T (CC50/IC50) (HEK293T; [11]): 6.256
Specificity HEK293T (CC50/IC50) (HEK293T; [12]): 4.538
MIC (K. pneumonia; K. pneumonia KP-3, MHII): 3.12 µg/mL (≈ 3.8 µM)
MIC (K. pneumonia; K. pneumonia KP-3, RPMI): 1.56 µg/mL (≈ 1.9 µM)
MIC (K. pneumonia; K. pneumonia KPC-KP1, MHII): 25 µg/mL (≈ 30.4 µM)
MIC (K. pneumonia; K. pneumonia KPC-KP1, RPMI): 50 µg/mL (≈ 60.8 µM)
survival (A. baumannii HUMC1 [2]; 5 mg/kg for 3 days, 2 days post infection): < 20%
survival (A. baumannii HUMC1 [2]; 5 mg/kg/daily for 3 days, oral gavage): did not protect from mortality
survival (A. baumannii HUMC1 [2]; 5 mg/kg/daily for 3 days, oral gavage, listed as RFP): did not improve survival vs. control
survival (A. baumannii HUMC1 [2]; 5 mg/kg/daily for 3 days, oral gavage, listed as RIF): did not do any better as compared to the PBS control group
lung CFUs (A. baumannii HUMC1 [2]; 5 mg/kg/daily for 3 days, oral gavage, lungs at 24 hrs post infection): did not reduce CFUs compared to control
bacterial burden (A. baumannii HUMC1 [2]; murine pneumonia, 5 mg/kg, day 7 post-infection): ~6.5 Log10(CFU/mg lung)
MIC (A. baumannii HUMC1 [3]; Acinetobacter baumannii, HUMC1, HUMC1, 0.01% Triton X-100, read-out: MIC): 2 µg/mL (≈ 2.43 µM)
MIC (A. baumannii HUMC1 [3]; Acinetobacter baumannii, HUMC1, HUMC1, 0.05% Tween 20, MHII, read-out: MIC): 2 µg/mL (≈ 2.43 µM)
MIC (A. baumannii HUMC1 [3]; Acinetobacter baumannii, HUMC1, HUMC1, 25° C., MHII, read-out: MIC): 2 µg/mL (≈ 2.43 µM)
MIC (A. baumannii HUMC1 [3]; Acinetobacter baumannii, HUMC1, HUMC1, 25° C., RPMI, read-out: MIC): 2 µg/mL (≈ 2.43 µM)
MIC (A. baumannii HUMC1 [3]; Acinetobacter baumannii, HUMC1, HUMC1, MHII (CAMHB), read-out: MIC): 4 µg/mL (≈ 4.86 µM)
MIC (A. baumannii HUMC1 [3]; Acinetobacter baumannii, HUMC1, HUMC1, RPMI + Essential Amino Acid Solution (50×), read-out: MIC): 6.25 µg/mL
MIC (A. baumannii HUMC1 [3]; Acinetobacter baumannii, HUMC1, HUMC1, RPMI + L-Histidine 0.5 mM): 12.5 µg/mL
MIC (A. baumannii HUMC1 [3]; Acinetobacter baumannii, HUMC1, HUMC1, RPMI + L-Tryptophan 0.125 mM): 12.5 µg/mL
difference in MICs at lower temperature (A. baumannii HUMC1 [3]; HUMC1, 25° C. or 30° C. compared to 37° C., MHII or RPMI): did not observe any difference
MIC (A. baumannii HUMC1 [3]; HUMC1, MHII (CAMHB in b45)): 3.125 µg/mL (≈ 3.8 µM)
MIC (A. baumannii HUMC1 [3]; HUMC1, MHII (CAMHB in b45), listed as Rifampin): 3.125 µg/mL (≈ 3.8 µM)
MIC (A. baumannii HUMC1 [3]; HUMC1, MHII (CAMHB), listed as RIF): 2 µg/mL and 3.125 µg/mL
MIC (A. baumannii HUMC1 [3]; HUMC1, RPMI): 3.125 µg/mL (≈ 3.8 µM)
MIC (A. baumannii HUMC1 [3]; HUMC1, RPMI, listed as Rifampin): 3.125 µg/mL (≈ 3.8 µM)
MIC (A. baumannii [4]; A. baumannii (strain not named), MHII): 4 µg/mL (≈ 4.86 µM)
MIC (A. baumannii [4]; A. baumannii (strain not named), RPMI with serum): 4 µg/mL (≈ 4.86 µM)
MIC (A. baumannii [4]; A. baumannii VA-AB21, MHII): 3.12 µg/mL (≈ 3.8 µM)
MIC (A. baumannii [4]; A. baumannii VA-AB21, RPMI): > 6.12 µg/mL
MIC50 (A. baumannii [4]; CAMHB): 3.13 µg/mL (≈ 3.8 µM)
MIC90 (A. baumannii [4]; CAMHB): 6.25 µg/mL (≈ 7.59 µM)
MIC50 (A. baumannii [4]; RPMI): 12.5 µg/mL (≈ 15.2 µM)
MIC90 (A. baumannii [4]; RPMI): 25 µg/mL (≈ 30.4 µM)
MIC (A. baumannii [4]; ATCC17978, A. baumannii ATCC17978 and HUMC1, MHII): 2 µg/mL (≈ 2.43 µM)
MIC (A. baumannii [4]; ATCC17978, A. baumannii ATCC17978 and HUMC1, RPMI): 8 µg/mL (≈ 9.72 µM)
IC50 (A. baumannii HUMC1 [1]; [13]): 7.99 µM
IC50 (A. baumannii HUMC1 [1]; [14]): 7.99 µM
IC50 (A. baumannii HUMC1 [1]; [15]): 11 µM
MIC (S. aureus LAC [5]; MHII): 0.025 µg/mL (≈ 0.0304 µM)
MIC (S. aureus LAC [5]; RPMI): 0.05 µg/mL (≈ 0.0608 µM)
MIC (E. coli; MHII): 6.25 µg/mL (≈ 7.59 µM)
MIC (E. coli; RPMI): 25 µg/mL (≈ 30.4 µM)
IC50 (A. baumannii ATCC 17978; [16]): 18.2 µM
IC50 (A. baumannii ATCC 17978; [17]): 18.2 µM
IC50 (A. baumannii ATCC 17978; [18]): 13.8 µM
Mutation Frequency (S. aureus LAC [6]): 9.49E−08
protection (Acinetobacter baumannii): only a partial protection
Mutation Frequency (E. coli JJ1886): 2.21E−08
protection at minimum dose test (A. baumannii HUMC1 [7]; IV infection, RIF 10 or 30 mg/kg/daily for 3 days): only partially protective
survival (A. baumannii HUMC1 [7]; bacteremia model, 10 mg/kg for 3 days, 2 days post infection, PBS/control 0%): about 50%
protection (A. baumannii HUMC1 [7]; murine bacteremia, 10 mg/kg): 50%
Mutation Frequency (A. baumannii [8]; A. baumannii ABNIH1, MHII): 4.17E−08
Mutation Frequency (A. baumannii [8]; A. baumannii ATCC17978, MHII): 5.14E−09
Mutation Frequency (A. baumannii [8]; A. baumannii ATCC17978, TSA): 7.95E−09
Mutation Frequency (A. baumannii [8]; A. baumannii HUMC1, MHII): 9.19E−09
Mutation Frequency (A. baumannii [8]; A. baumannii HUMC1, TSA): 1.44E−08
Mutation Frequency (A. baumannii [8]; A. baumannii LAC-4, MHII): 2.62E−08

SMILES: CO[C@H]1/C=C/O[C@@]2(C)Oc3c(C)c(O)c4c(=O)c(c5oc6cc(N7CCN(CC(C)C)CC7)cc(O)c6nc-5c4c3C2=O)NC(=O)/C(C)=C\C=C\[C@H](C)[C@H](O)[C@@H](C)[C@@H](O)[C@@H](C)[C@H](OC(C)=O)[C@@H]1C [rifalazil]
Specificity HEK293T (CC50/IC50) (HEK293T; [9]): 0.609
Specificity HEK293T (CC50/IC50) (HEK293T; [10]): 1.752
Specificity HEK293T (CC50/IC50) (HEK293T; [11]): 4.055
Specificity HEK293T (CC50/IC50) (HEK293T; [12]): 1.523
IC50 (A. baumannii HUMC1 [1]; [13]): 7.51 µM
IC50 (A. baumannii HUMC1 [1]; [14]): 7.51 µM
IC50 (A. baumannii HUMC1 [1]; [15]): 20 µM
IC50 (A. baumannii ATCC 17978; [17]): 50 µM
IC50 (A. baumannii ATCC 17978; [18]): 17.4 µM

Reference: patent US20230381157A1, “RIFABUTIN FOR THE TREATMENT OF ACINETOBACTER BAUMANNII” (University of Southern California, priority 2018, published 2023)
